From BigSolDB 2.1

A solubility (mole fraction) (in ethanol, 283.15 K) of 0.0522, a solubility (mole fraction) (in ethanol, 287.15 K) of 0.0611 and a solubility (mole fraction) (in ethanol, 291.15 K) of 0.0712 were found for `CCOC(=O)c1ccc(N)cc1` in this work. The solubility (mole fraction) (in ethanol, 295.15 K) was 0.0831, the solubility (mole fraction) (in ethanol, 299.15 K) was 0.0982 and the solubility (mole fraction) (in ethanol, 303.15 K) was 0.115. The solubility (mole fraction) (in ethanol, 307.15 K) was 0.135, the solubility (mole fraction) (in ethanol, 311.15 K) was 0.16 and the solubility (mole fraction) (in ethanol, 315.15 K) was 0.191. For the same compound, the solubility (mole fraction) (in ethanol, 318.15 K) was 0.221, the solubility (mole fraction) (in ethanol, 321.15 K) was 0.251 and the solubility (mole fraction) (in ethanol, 324.15 K) was 0.289. It also gave a solubility (mole fraction) (in ethanol, 327.15 K) of 0.328, a solubility (mole fraction) (in isobutanol, 283.15 K) of 0.0281 and a solubility (mole fraction) (in isobutanol, 287.15 K) of 0.0328. The solubility (mole fraction) (in isobutanol, 291.15 K) was 0.0392, the solubility (mole fraction) (in isobutanol, 295.15 K) was 0.048 and the solubility (mole fraction) (in isobutanol, 299.15 K) was 0.0583. For the same compound, the solubility (mole fraction) (in isobutanol, 303.15 K) was 0.071, the solubility (mole fraction) (in isobutanol, 307.15 K) was 0.0879 and the solubility (mole fraction) (in isobutanol, 311.15 K) was 0.111. It also gave a solubility (mole fraction) (in isobutanol, 315.15 K) of 0.14, a solubility (mole fraction) (in isobutanol, 318.15 K) of 0.168 and a solubility (mole fraction) (in isobutanol, 321.15 K) of 0.204. For the same compound, the solubility (mole fraction) (in isobutanol, 324.15 K) was 0.25, the solubility (mole fraction) (in isobutanol, 327.15 K) was 0.303 and the solubility (mole fraction) (in isopentanol, 283.15 K) was 0.0335. For the same compound, the solubility (mole fraction) (in isopentanol, 287.15 K) was 0.0371, the solubility (mole fraction) (in isopentanol, 291.15 K) was 0.0439 and the solubility (mole fraction) (in isopentanol, 295.15 K) was 0.0529. For the same compound, the solubility (mole fraction) (in isopentanol, 299.15 K) was 0.0632, the solubility (mole fraction) (in isopentanol, 303.15 K) was 0.0757 and the solubility (mole fraction) (in isopentanol, 307.15 K) was 0.0917. The solubility (mole fraction) (in isopentanol, 311.15 K) was 0.115, the solubility (mole fraction) (in isopentanol, 315.15 K) was 0.145 and the solubility (mole fraction) (in isopentanol, 318.15 K) was 0.172. The solubility (mole fraction) (in isopentanol, 321.15 K) was 0.206, the solubility (mole fraction) (in isopentanol, 324.15 K) was 0.252 and the solubility (mole fraction) (in isopentanol, 327.15 K) was 0.305. It also gave a solubility (mole fraction) (in methanol, 283.15 K) of 0.0528, a solubility (mole fraction) (in methanol, 287.15 K) of 0.0629 and a solubility (mole fraction) (in methanol, 291.15 K) of 0.075. The solubility (mole fraction) (in methanol, 295.15 K) was 0.0863, the solubility (mole fraction) (in methanol, 299.15 K) was 0.103 and the solubility (mole fraction) (in methanol, 303.15 K) was 0.12. For the same compound, the solubility (mole fraction) (in methanol, 307.15 K) was 0.141, the solubility (mole fraction) (in methanol, 311.15 K) was 0.168 and the solubility (mole fraction) (in methanol, 315.15 K) was 0.2. It also gave a solubility (mole fraction) (in methanol, 318.15 K) of 0.227, a solubility (mole fraction) (in methanol, 321.15 K) of 0.259 and a solubility (mole fraction) (in methanol, 324.15 K) of 0.296. The solubility (mole fraction) (in methanol, 327.15 K) was 0.335, the solubility (mole fraction) (in n-butanol, 283.15 K) was 0.037 and the solubility (mole fraction) (in n-butanol, 287.15 K) was 0.0467. It also gave a solubility (mole fraction) (in n-butanol, 291.15 K) of 0.0562, a solubility (mole fraction) (in n-butanol, 295.15 K) of 0.0668 and a solubility (mole fraction) (in n-butanol, 299.15 K) of 0.0821. It also gave a solubility (mole fraction) (in n-butanol, 303.15 K) of 0.0981, a solubility (mole fraction) (in n-butanol, 307.15 K) of 0.118 and a solubility (mole fraction) (in n-butanol, 311.15 K) of 0.146. It also gave a solubility (mole fraction) (in n-butanol, 315.15 K) of 0.176, a solubility (mole fraction) (in n-butanol, 318.15 K) of 0.207 and a solubility (mole fraction) (in n-butanol, 321.15 K) of 0.241. For the same compound, the solubility (mole fraction) (in n-butanol, 324.15 K) was 0.281, the solubility (mole fraction) (in n-butanol, 327.15 K) was 0.323 and the solubility (mole fraction) (in n-propanol, 283.15 K) was 0.0441. It also gave a solubility (mole fraction) (in n-propanol, 287.15 K) of 0.0521, a solubility (mole fraction) (in n-propanol, 291.15 K) of 0.0605 and a solubility (mole fraction) (in n-propanol, 295.15 K) of 0.071. For the same compound, the solubility (mole fraction) (in n-propanol, 299.15 K) was 0.085, the solubility (mole fraction) (in n-propanol, 303.15 K) was 0.101 and the solubility (mole fraction) (in n-propanol, 307.15 K) was 0.121. For the same compound, the solubility (mole fraction) (in n-propanol, 311.15 K) was 0.148, the solubility (mole fraction) (in n-propanol, 315.15 K) was 0.179 and the solubility (mole fraction) (in n-propanol, 318.15 K) was 0.211. It also gave a solubility (mole fraction) (in n-propanol, 321.15 K) of 0.245, a solubility (mole fraction) (in n-propanol, 324.15 K) of 0.284 and a solubility (mole fraction) (in n-propanol, 327.15 K) of 0.326.
